# According to ChEMBL document CHEMBL1140680 (Bioorg Med Chem Lett, 2007):
# Tests used:
# Staphylococcus aureus = assay: Antibacterial activity against Staphylococcus aureus UC76 SA1 by micro-broth method; type: functional
# Streptococcus pneumoniae = assay: Antibacterial activity against Streptococcus pneumoniae SV1 SP3 by micro-broth method; type: functional
# Streptococcus pyogenes = assay: Antibacterial activity against Streptococcus pyogenes C203 SP1-1 by micro-broth method; type: functional
# Enterococcus faecalis = assay: Antibacterial activity against Enterococcus faecalis MG2 EF1 by micro-broth method; type: functional
# Escherichia coli = assay: Inhibition of transcription and translation activity in Escherichia coli by luciferase reporter assay; type: functional, organism-based
# Haemophilus influenzae = assay: Antibacterial activity against Heamophilus influenzae HI3542 by microbroth method; type: functional
# Moraxella catarrhalis = assay: Antibacterial activity against Moraxella catarrhalis BC-3531 by micro-broth method; type: functional
SMILES,MIC (Staphylococcus aureus),MIC (Streptococcus pneumoniae),MIC (Streptococcus pyogenes),MIC (Enterococcus faecalis),IC50 (Escherichia coli),MIC (Haemophilus influenzae),MIC (Moraxella catarrhalis)
CC(=O)NC[C@H]1CN(c2ccc3c(c2)CCCCC3=O)C(=O)O1,1 µg/mL,0.5 µg/mL,0.5 µg/mL,2 µg/mL,–,–,–
CC(=O)NC[C@H]1CN(c2ccc3c(c2)CCCc2c(-c4cccnc4)n[nH]c2-3)C(=O)O1,1 µg/mL,0.125 µg/mL,0.25 µg/mL,0.5 µg/mL,1000 nM,4 µg/mL,2 µg/mL
CC(=O)NC[C@H]1CN(c2ccc3c(c2)CCCc2c(-c4ccoc4)n[nH]c2-3)C(=O)O1,0.5 µg/mL,0.25 µg/mL,0.125 µg/mL,0.25 µg/mL,700 nM,4 µg/mL,1 µg/mL
CC(=O)NC[C@H]1CN(c2ccc3c(c2)CCCc2c(-c4ccno4)n[nH]c2-3)C(=O)O1,0.25 µg/mL,< 0.06 µg/mL,< 0.06 µg/mL,0.125 µg/mL,760 nM,2 µg/mL,1 µg/mL
CC(=O)NC[C@H]1CN(c2ccc3c(c2)CCCc2c(-c4cscn4)n[nH]c2-3)C(=O)O1,1 µg/mL,0.125 µg/mL,1 µg/mL,0.5 µg/mL,1100 nM,2 µg/mL,1 µg/mL
CC(=O)NC[C@H]1CN(c2ccc3c(c2)CCCc2c(-c4nnc(-c5ccccc5)o4)n[nH]c2-3)C(=O)O1,> 64 µg/mL,0.25 µg/mL,0.25 µg/mL,> 64 µg/mL,–,16 µg/mL,> 64 µg/mL
CC(=O)NC[C@H]1CN(c2ccc3c(c2)CCCc2cn[nH]c2-3)C(=O)O1,0.5 µg/mL,0.25 µg/mL,0.125 µg/mL,0.25 µg/mL,–,2 µg/mL,2 µg/mL
CC(=O)NC[C@H]1CN(c2ccc3c(c2)CCCc2c(-c4ccccc4)n[nH]c2-3)C(=O)O1,0.5 µg/mL,0.5 µg/mL,0.5 µg/mL,0.5 µg/mL,2000 nM,8 µg/mL,2 µg/mL
CC(=O)NC[C@H]1CN(c2ccc3c(c2)CCCc2c(-c4ccc(O)cc4)n[nH]c2-3)C(=O)O1,1 µg/mL,0.25 µg/mL,2 µg/mL,0.5 µg/mL,1700 nM,4 µg/mL,2 µg/mL
CC(=O)NC[C@H]1CN(c2ccc3c(c2)CCCc2c(-c4ccc(C#N)cc4)n[nH]c2-3)C(=O)O1,0.5 µg/mL,0.25 µg/mL,0.125 µg/mL,0.25 µg/mL,1400 nM,4 µg/mL,1 µg/mL
O=C(NC[C@H]1CN(c2ccc3c(c2)CCCc2c(-c4ccno4)n[nH]c2-3)C(=O)O1)c1ccno1,1 µg/mL,0.5 µg/mL,0.5 µg/mL,1 µg/mL,16800 nM,32 µg/mL,4 µg/mL
CC(=O)NC[C@H]1CN(c2ccc3c(c2)CCCc2c(-c4cc5ccccc5o4)n[nH]c2-3)C(=O)O1,2 µg/mL,0.5 µg/mL,0.5 µg/mL,0.5 µg/mL,> 31200 nM,> 64 µg/mL,8 µg/mL
CC(=O)NC[C@H]1CN(c2ccc3c(c2)CCCc2c(-c4nc5ccccc5s4)n[nH]c2-3)C(=O)O1,> 64 µg/mL,> 64 µg/mL,> 64 µg/mL,> 64 µg/mL,–,> 64 µg/mL,> 64 µg/mL
CC(=O)NC[C@H]1CN(c2cc(F)c3c(c2)CCCc2c(-c4ccco4)n[nH]c2-3)C(=O)O1,2 µg/mL,1 µg/mL,1 µg/mL,2 µg/mL,5700 nM,64 µg/mL,8 µg/mL
O=C(NC[C@H]1CN(c2ccc3c(c2)CCCc2c(-c4ccoc4)n[nH]c2-3)C(=O)O1)c1ccoc1,2 µg/mL,1 µg/mL,1 µg/mL,1 µg/mL,3500 nM,8 µg/mL,4 µg/mL
CC(=O)NC[C@H]1CN(c2cc(F)c3c(c2)CCCc2c(-c4cc(C)n(C)n4)n[nH]c2-3)C(=O)O1,4 µg/mL,1 µg/mL,1 µg/mL,2 µg/mL,4200 nM,> 64 µg/mL,32 µg/mL
CCCC(=O)NC[C@H]1CN(c2ccc3c(c2)CCCc2c(CCC)n[nH]c2-3)C(=O)O1,2 µg/mL,1 µg/mL,1 µg/mL,2 µg/mL,5600 nM,> 64 µg/mL,8 µg/mL
Cc1cc(C(=O)NC[C@H]2CN(c3ccc4c(c3)CCCc3c(-c5cc(C)on5)n[nH]c3-4)C(=O)O2)no1,> 64 µg/mL,1 µg/mL,2 µg/mL,> 64 µg/mL,–,> 64 µg/mL,> 64 µg/mL
O=C(NC[C@H]1CN(c2ccc3c(c2)CCCc2c(-c4cc5ccccc5o4)n[nH]c2-3)C(=O)O1)c1cc2ccccc2o1,32 µg/mL,8 µg/mL,4 µg/mL,32 µg/mL,> 25000 nM,> 64 µg/mL,> 64 µg/mL

SMILES,MIC (Staphylococcus aureus),MIC (Streptococcus pneumoniae),MIC (Streptococcus pyogenes),MIC (Enterococcus faecalis),IC50 (Escherichia coli),MIC (Haemophilus influenzae),MIC (Moraxella catarrhalis)
Cc1cc(C(=O)NC[C@H]2CN(c3cc(F)c4c(c3)CCCc3c(-c5cc(C)on5)n[nH]c3-4)C(=O)O2)no1,> 64 µg/mL,> 64 µg/mL,> 64 µg/mL,> 64 µg/mL,11500 nM,> 64 µg/mL,> 64 µg/mL
Cc1cc(C(=O)NC[C@H]2CN(c3cc(F)c4c(c3)CCCc3c(-c5cc(C)n(C)n5)n[nH]c3-4)C(=O)O2)nn1C,> 64 µg/mL,> 64 µg/mL,> 64 µg/mL,> 64 µg/mL,> 25000 nM,> 64 µg/mL,> 64 µg/mL
NC[C@H]1CN(c2ccc3c(c2)CCCc2c(-c4ccno4)n[nH]c2-3)C(=O)O1,16 µg/mL,4 µg/mL,2 µg/mL,8 µg/mL,8300 nM,> 64 µg/mL,64 µg/mL
CCOC(=O)NC[C@H]1CN(c2ccc3c(c2)CCCc2c(-c4ccno4)n[nH]c2-3)C(=O)O1,1 µg/mL,0.5 µg/mL,0.5 µg/mL,0.5 µg/mL,1800 nM,> 64 µg/mL,4 µg/mL
O=C(NC[C@H]1CN(c2ccc3c(c2)CCCc2c(-c4ccno4)n[nH]c2-3)C(=O)O1)C1CC1,1 µg/mL,0.25 µg/mL,0.25 µg/mL,0.5 µg/mL,1300 nM,32 µg/mL,1 µg/mL
CC(=O)NC[C@H]1CN(c2ccc3c(c2)CCCc2c(-c4cc(C)n(C)n4)n[nH]c2-3)C(=O)O1,0.5 µg/mL,0.25 µg/mL,0.25 µg/mL,0.5 µg/mL,1300 nM,8 µg/mL,4 µg/mL
CC(=O)NC[C@H]1CN(c2ccc3c(c2)CCCc2c(-c4csc(-c5ccccc5)n4)n[nH]c2-3)C(=O)O1,8 µg/mL,0.5 µg/mL,1 µg/mL,8 µg/mL,> 11400 nM,> 64 µg/mL,> 64 µg/mL
CC(=O)NC[C@H]1CN(c2ccc3c(c2)CCCc2c(-c4ccc(F)cc4)n[nH]c2-3)C(=O)O1,0.5 µg/mL,0.25 µg/mL,1 µg/mL,0.5 µg/mL,1500 nM,8 µg/mL,1 µg/mL
CC(=O)NC[C@H]1CN(c2ccc3c(c2)CCCc2c(-c4ccncc4)n[nH]c2-3)C(=O)O1,2 µg/mL,0.25 µg/mL,0.25 µg/mL,1 µg/mL,1000 nM,4 µg/mL,2 µg/mL
CC(=O)NC[C@H]1CN(c2ccc3c(c2)CCCc2c(-c4cc(C)on4)n[nH]c2-3)C(=O)O1,0.5 µg/mL,0.25 µg/mL,0.25 µg/mL,0.5 µg/mL,900 nM,4 µg/mL,2 µg/mL
CC(=O)NC[C@H]1CN(c2ccc3c(c2)CCCc2c(-c4snnc4C)n[nH]c2-3)C(=O)O1,0.5 µg/mL,0.25 µg/mL,0.125 µg/mL,0.5 µg/mL,700 nM,8 µg/mL,2 µg/mL
CC(=O)NC[C@H]1CN(c2cc(F)c3c(c2)CCCc2c(-c4ccno4)n[nH]c2-3)C(=O)O1,1 µg/mL,0.5 µg/mL,0.25 µg/mL,0.5 µg/mL,1400 nM,> 64 µg/mL,4 µg/mL
CC(=O)NC[C@H]1CN(c2cc(F)c3c(c2)CCCc2c(-c4cc(C)on4)n[nH]c2-3)C(=O)O1,1 µg/mL,0.5 µg/mL,0.5 µg/mL,0.5 µg/mL,2100 nM,> 64 µg/mL,4 µg/mL
O=C(NC[C@H]1CN(c2ccc3c(c2)CCCc2c(-c4ccno4)n[nH]c2-3)C(=O)O1)c1cccnc1,2 µg/mL,1 µg/mL,1 µg/mL,1 µg/mL,2800 nM,> 64 µg/mL,32 µg/mL
O=C(NC[C@H]1CN(c2ccc3c(c2)CCCc2c(-c4ccno4)n[nH]c2-3)C(=O)O1)C(F)F,0.5 µg/mL,0.25 µg/mL,0.125 µg/mL,0.5 µg/mL,210 nM,4 µg/mL,1 µg/mL
CC(=O)NC[C@H]1CN(c2cc(F)c3c(c2)CCCc2cn[nH]c2-3)C(=O)O1,2 µg/mL,1 µg/mL,1 µg/mL,2 µg/mL,2100 nM,8 µg/mL,8 µg/mL
CC(C)C(=O)NC[C@H]1CN(c2ccc3c(c2)CCCc2c(C(C)C)n[nH]c2-3)C(=O)O1,8 µg/mL,4 µg/mL,4 µg/mL,8 µg/mL,7900 nM,64 µg/mL,32 µg/mL
O=C(NC[C@H]1CN(c2ccc3c(c2)CCCc2c(-c4cccnc4)n[nH]c2-3)C(=O)O1)c1cccnc1,8 µg/mL,1 µg/mL,2 µg/mL,4 µg/mL,3700 nM,> 64 µg/mL,16 µg/mL
CC(=O)NC[C@H]1CN(c2ccc(N3CCOCC3)c(F)c2)C(=O)O1 [LINEZOLID],–,–,2 µg/mL,–,–,–,–
